Reference: ChEMBL document CHEMBL1152047, “(cis)-3-methyl-1,5-benzothiazepine-4-ones: potent analogs of the calcium channel blocker diltiazen” (Bioorg Med Chem Lett, 1993)

Species: Oryctolagus cuniculus
Test: Vasorelaxant potency determined by relaxation of potassium depolarized rabbit aortic strips
Type: functional
Details: Aorta

IC50	SMILES
82 nM	COc1ccc([C@@H]2Sc3ccccc3N(CCN(C)C)C(=O)[C@@H]2C)cc1
120 nM	COc1ccc([C@@H]2Sc3cc(OC)ccc3N(CCN(C)C)C(=O)[C@@H]2OC(C)=O)cc1
22 nM	COc1ccc([C@@H]2Sc3cc(C(F)(F)F)ccc3N(CCN(C)C)C(=O)[C@@H]2C)cc1
10 nM	COc1ccc([C@@H]2Sc3cc(OC)ccc3N(CCN(C)C)C(=O)[C@@H]2C)cc1
